Test results as given in paper PMC9386018, “A lymphatic-absorbed multi-targeted kinase inhibitor for myelofibrosis therapy” (Nature Communications, 2022).
Values joined by “and” are separate entries in the source; they are usually repeats but may differ in a detail not shown here. Identical values can stand only once. Like-named read-outs stand apart in the source and are kept apart here.

Tests used:
[1] = Bioavailability studies: recovery in feces and urine; format: in vivo, mouse; settings: for LP-182 Recovered (mg) Feces / LP-182 Recovered (mg) Urine / Fa: individual replicates; for Fa: from Feces, read-out: LP-182 Bioavailability (%)
Experimental: Seven groups of female CD-1 mice (n = 4 per dosing group) received a single oral dose of LP-182 at 0, 100, 200, 400, 600, 800 and 1000 mg kg^−1 solubilized in Maisine CC. […] Urine and fecal samples were collected over 24 h at 24, 48 and 72 h intervals using metabolic cages, and quantitation of LP-182 in each sample was determined by the University of Michigan Pharmacokinetics Core. Briefly, water was added to fecal samples at an average ratio of 2.5 ± 1.6 (w/w) water:feces to generate fecal homogenates using a tissue homogenizer (Omni International TH), then approximately 200 mg of homogenate was diluted 5-fold with 20% (v/v) acetonitrile in water prior to analysis. […] The cumulative amount of compound recovered over 72 h in feces and urine was determined from sample analyte concentrations provided by the core, then converted to percent recovered by normalization to the amount of compound administered. […] LP-182 dose (mg kg^−1):LP-182 administered (mg) is 100:2.7; 200:5.4; 400:10.8; 600:16.2; 800:21.6; 1000:27.0. Data was generated from n = 4 individual animals per compound dose.

[2] = system: MPL^W515L mouse model of myelofibrosis; assay: MPL^W515L MF mouse model: immune cell numbers in spleen; format: in vivo; settings: MPL^W515L mice, oral 400 mg kg^−1 daily, 28 d
Experimental: The human megakaryoblastic cell line, SET-2 (ATCC), was maintained in RPMI 1640 supplemented with 20% FBS and incubated for 16 h at 10^6 cells mL^−1 with LP-182 or vehicle (DMSO; dimethyl sulfoxide), then washed in ice-cold PBS, and collected for flow cytometry analysis. Single-cell suspensions of mouse spleen were prepared from MPL^W515L MF mice (below) in RPMI 1640 supplemented with 5% FCS. Red blood cells were lysed by ammonium chloride-mediated red cell lysis (RCL) buffer and passed through a nylon mesh, and then cells were counted. For intracellular phospho-protein staining, SET-2 or spleen cells were fixed and then permeabilized using BD Phospho-flow fixation buffer and Perm-Buffer III (BD biosciences) according to the manufacturer’s protocol. Intracellular phospho-protein staining was performed using fluorochrome-conjugated antibodies, pAKT (pS473)-Alexa Fluor 647 (MB89-61) or pERK1/2 (pT202/pY204)-Alexa Fluor 647 (20 A). […] Flow cytometry was performed on a FACS Fortessa (Becton, Dickinson and Co.) using FACSDiVa software, and data analyzed using FlowJo software (Tree Star). […]
Generation of the MPL^W515L mutant MF mouse model was similar to previously described methods. […] Development of MF was evaluated by spleen volumes using MRI beginning ~14 d following bone marrow transplantation (BMT) as outlined below, continuing weekly until end of the study. […]

O=C(NOCCOCCOCCOCCC(=O)N1CCN(c2cnc3ccc(-c4cnc(Cl)c(NS(=O)(=O)c5ccc(F)cc5)c4)cc3n2)CC1)c1ccc(F)c(F)c1Nc1ccc(I)cc1F [LP-182, N-(2-(2-(2-(3-(4-(7-(6-chloro-5-((4-fluorophenyl)sulfonamido)pyridin-3-yl)quinoxalin-2-yl)piperazin-1-yl)-3-oxopropoxy)ethoxy)ethoxy)ethoxy)-3,4-difluoro-2-((2-fluoro-4-iodophenyl)amino)benzamide]
LP-182 Recovered (mg) Feces ([1]; Dose 100 mg/kg): 0.2704 mg and 0.2192 mg and 0.3774 mg and 0.8162 mg
LP-182 Recovered (mg) Feces ([1]; Dose 200 mg/kg): 0.8447 mg and 0.5724 mg and 1.4803 mg and 1.5068 mg
LP-182 Recovered (mg) Feces ([1]; Dose 400 mg/kg): 1.4042 mg and 2.0055 mg and 2.0997 mg and 2.356 mg
LP-182 Recovered (mg) Feces ([1]; Dose 600 mg/kg): 3.3135 mg and 1.6755 mg and 3.7882 mg and 2.917 mg
LP-182 Recovered (mg) Feces ([1]; Dose 800 mg/kg): 3.1521 mg and 5.2995 mg and 6.9935 mg and 3.8874 mg
LP-182 Recovered (mg) Feces ([1]; Dose 1000 mg/kg): 3.5565 mg and 6.4352 mg and 5.241 mg and 6.6537 mg
LP-182 Recovered (mg) Urine ([1]; Dose 100 mg/kg): 0.001008 mg and 1.367e-05 mg and 0.0001025 mg and 0.00204 mg
LP-182 Recovered (mg) Urine ([1]; Dose 200 mg/kg): 4.24e-05 mg and 0.0002221 mg and 5.303e-05 mg and 0.0002304 mg
LP-182 Recovered (mg) Urine ([1]; Dose 400 mg/kg): 0.0004111 mg and 0.000386 mg and 0.0002292 mg and 0.001169 mg
LP-182 Recovered (mg) Urine ([1]; Dose 600 mg/kg): 0.00017 mg and 0.02442 mg and 0.000379 mg and 0.001062 mg
LP-182 Recovered (mg) Urine ([1]; Dose 800 mg/kg): 2.655e-05 mg and 0.001833 mg and 0.0008829 mg and 0.0002937 mg
LP-182 Recovered (mg) Urine ([1]; Dose 1000 mg/kg): 0.0001091 mg and 2.205e-05 mg and 2.702e-05 mg and 0.001664 mg
Fa ([1]; female, CD-1, mouse, feces, oral, 200 mg/kg, Dose 200 mg/kg): 84.4%
Fa ([1]; female, CD-1, mouse, feces, oral, 400 mg/kg, Dose 400 mg/kg): 87%
Fa ([1]; female, CD-1, mouse, feces, oral, 600 mg/kg, Dose 600 mg/kg): 79.5%
Fa ([1]; female, CD-1, mouse, feces, oral, 800 mg/kg, Dose 800 mg/kg): 85.4%
Fa ([1]; female, CD-1, mouse, feces, oral, 1000 mg/kg, Dose 1000 mg/kg): 86.8%
dose excreted at 24 h ([1]; female, CD-1, mouse, mice, oral, feces collected after 24 h, read-out: recovery from fecal samples, % of total recovered): ~95%
dose excreted at 48 h ([1]; female, CD-1, mouse, mice, oral, feces collected after 48 h, read-out: recovery from fecal samples, % of total recovered): 5%
Fa ([1]; Dose 100 mg/kg, 100 mg/kg): 90% and 91.9% and 86% and 69.8%
Fa ([1]; Dose 200 mg/kg, 200 mg/kg): 89.4% and 72.6% and 72.1%
Fa ([1]; Dose 400 mg/kg, 400 mg/kg): 81.4% and 80.6% and 78.2%
Fa ([1]; Dose 600 mg/kg, 600 mg/kg): 89.7% and 76.6% and 82%
Fa ([1]; Dose 800 mg/kg, 800 mg/kg): 75.5% and 67.6% and 82%
Fa ([1]; Dose 1000 mg/kg, 1000 mg/kg): 76.2% and 80.6% and 75.4%
dose-independent fecal excretion (% drug recovered) of intact compound ([1]; mice, oral 100-1000 mg kg^−1, over 72 h): approximately 20%
amount recovered in the urine ([1]; mice, oral, all time points (24, 48, 72 h)): negligible amounts
oral bioavailability, lower threshold limit ([1]; mice, difference of administered and recovered in feces over 72 h): ≥ 80%
cell numbers of neutrophils (Neu) and megakaryocytes (MK) in the spleen [2]: decreased cell numbers
